Test results reported in ChEMBL document CHEMBL1201862, “PubChem BioAssay data set” (2004).
Activity calls are given as the source filed them.

Key:
[1] = biological target: Induced myeloid leukemia cell differentiation protein Mcl-1 (Homo sapiens, UniProt Q07820); format: functional
[2] = biological target: T1, Protein skinhead-1 (Caenorhabditis elegans, UniProt P34707); format: functional
T1 sequence (P34707 whole entry): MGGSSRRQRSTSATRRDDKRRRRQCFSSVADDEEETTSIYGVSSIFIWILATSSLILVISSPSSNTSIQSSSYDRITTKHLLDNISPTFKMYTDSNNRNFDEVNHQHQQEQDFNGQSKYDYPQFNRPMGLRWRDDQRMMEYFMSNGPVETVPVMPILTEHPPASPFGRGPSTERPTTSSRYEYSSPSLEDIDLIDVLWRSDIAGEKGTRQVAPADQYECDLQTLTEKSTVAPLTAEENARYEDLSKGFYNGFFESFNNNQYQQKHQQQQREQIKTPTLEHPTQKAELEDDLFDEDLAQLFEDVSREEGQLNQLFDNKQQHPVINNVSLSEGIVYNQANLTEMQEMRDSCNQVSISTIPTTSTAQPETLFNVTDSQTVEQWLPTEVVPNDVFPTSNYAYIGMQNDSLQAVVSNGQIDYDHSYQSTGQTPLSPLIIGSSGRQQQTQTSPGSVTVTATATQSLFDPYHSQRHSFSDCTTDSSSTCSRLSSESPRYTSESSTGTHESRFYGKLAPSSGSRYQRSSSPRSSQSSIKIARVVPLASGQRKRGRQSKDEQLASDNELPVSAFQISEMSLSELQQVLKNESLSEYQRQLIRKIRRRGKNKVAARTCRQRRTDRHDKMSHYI

[3] = non-specific 3'UTR reporter inhibition in Clone20-Shn3RL – cell-based, Renilla luciferase, cherry-picked, counter-screen for Shn3 inhibitor project, dose response (AID 624133); format: functional
[4] = tested on: H9c2; assay: cells; format: functional, cell-based; settings: Rattus norvegicus, H9c2, Myocardium;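 further: confirmatory concentration-response retest of ultra-high-throughput screening hits for modulation of myocardial damage; cell death induced by hydrogen peroxide oxidative stress; compound pretreatment for 60 min then peroxide exposure for 2 h; potency is for protecting the cells against peroxide damage rather than for killing them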
[5] = reduction of Shn3 3'UTR-driven luciferase in osteoblasts – cell-based, Clone20 osteoblasts, firefly luciferase, cherry-picked, dose response (AID 624132); format: functional;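 further: firefly luciferase luminescence from reporter carrying the Shn3 3'UTR in osteoblasts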
[6] = P. falciparum Dd2 growth inhibitors, dose response, SYBR Green, cherry-picked samples (AID 1159567); format: functional, cell-based
[7] = blockers of HIV-1 ZM109 envelope-driven cell-cell fusion – HeLa effector, CEM target cells, luciferase, cherry-pick, dose response (AID 652058); format: functional, cell-based;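 further: luciferase signal from HIV-1 Env mediated cell-cell fusion of effector and target cells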
[8] = loss of viability in HepG2 cells – cell-based, CellTiter-Glo, cherry-picked, cytotoxicity control for Shn3 inhibitor project, dose response (AID 624134); format: functional
[9] = biological target: Large T antigen (Simian virus 40, UniProt P03070); format: functional, Betapolyomavirus macacae;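 further: Confirmatory-stage PubChem screen for compounds that inhibit SV40 T antigen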
[10] = biological target: T2, Heat shock factor protein 1 (Mus musculus, UniProt P38532); assay: enhancement of HSF1-driven luciferase signal – cell-based, NIH3T3, luminescence, dose retest, confirmation (AID 435004); format: functional;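 further: stress induced by proteasome inhibitor MG132 added 30 min after compound; luciferase reporter driven by HSF1 response element in NIH3T3 cells; actives raise luminescence as potentiators of the MG132 stress response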
T2 sequence (P38532 whole entry): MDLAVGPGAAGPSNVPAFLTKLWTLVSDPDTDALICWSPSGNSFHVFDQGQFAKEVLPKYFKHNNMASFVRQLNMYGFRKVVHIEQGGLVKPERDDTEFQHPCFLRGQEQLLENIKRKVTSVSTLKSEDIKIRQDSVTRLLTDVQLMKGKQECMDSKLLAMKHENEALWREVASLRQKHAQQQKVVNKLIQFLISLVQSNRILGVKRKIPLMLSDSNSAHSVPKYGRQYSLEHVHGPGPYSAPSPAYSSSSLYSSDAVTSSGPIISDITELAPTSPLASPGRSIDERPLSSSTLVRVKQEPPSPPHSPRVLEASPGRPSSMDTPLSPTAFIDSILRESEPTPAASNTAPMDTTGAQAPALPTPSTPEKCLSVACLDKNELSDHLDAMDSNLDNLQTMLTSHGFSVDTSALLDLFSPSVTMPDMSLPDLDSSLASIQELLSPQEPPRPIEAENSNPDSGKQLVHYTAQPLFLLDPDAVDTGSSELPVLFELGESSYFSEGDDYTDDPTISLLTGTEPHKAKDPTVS

[11] = biological target: Nonstructural protein 1 (Influenza A virus, UniProt Q194T2); format: functional, Influenza A virus (A/California/07/2009(H1N1))
[12] = viability of PTEN-deleted HCT116 cells – cell-based, HCT116 PTEN knockout, dose response (AID 1047); format: functional;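 further: HCT116 colon tumor cells with PTEN knocked out; cells exposed to compound for 60 hours before readout; potency for loss of cell viability measured by luminescence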
[13] = viability of HCT116 lacking mutant beta-catenin – cell-based, human colon tumor, dose response (AID 1045); format: functional;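 further: HCT116 colon tumor cells with beta catenin knocked out; cells exposed to compound for 60 hours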
[14] = Luminescence Cell-Based Dose Retest to Confirm Inhibitors of Cancer Stem Cells. [Related pubchem assays (depositor defined):AID2717, AID2721]; format: functional; settings: Homo sapiens
[15] = biological target: T3, Rac GTPase-activating protein 1 (Homo sapiens, UniProt Q9H0H5); assay: blockers of MgcRacGAP-driven Rac1 GTP hydrolysis – biochemical, ADP Hunter fluorescence, primary and confirmatory, confirmation (AID 624330); format: functional
T3 sequence (Q9H0H5 whole entry): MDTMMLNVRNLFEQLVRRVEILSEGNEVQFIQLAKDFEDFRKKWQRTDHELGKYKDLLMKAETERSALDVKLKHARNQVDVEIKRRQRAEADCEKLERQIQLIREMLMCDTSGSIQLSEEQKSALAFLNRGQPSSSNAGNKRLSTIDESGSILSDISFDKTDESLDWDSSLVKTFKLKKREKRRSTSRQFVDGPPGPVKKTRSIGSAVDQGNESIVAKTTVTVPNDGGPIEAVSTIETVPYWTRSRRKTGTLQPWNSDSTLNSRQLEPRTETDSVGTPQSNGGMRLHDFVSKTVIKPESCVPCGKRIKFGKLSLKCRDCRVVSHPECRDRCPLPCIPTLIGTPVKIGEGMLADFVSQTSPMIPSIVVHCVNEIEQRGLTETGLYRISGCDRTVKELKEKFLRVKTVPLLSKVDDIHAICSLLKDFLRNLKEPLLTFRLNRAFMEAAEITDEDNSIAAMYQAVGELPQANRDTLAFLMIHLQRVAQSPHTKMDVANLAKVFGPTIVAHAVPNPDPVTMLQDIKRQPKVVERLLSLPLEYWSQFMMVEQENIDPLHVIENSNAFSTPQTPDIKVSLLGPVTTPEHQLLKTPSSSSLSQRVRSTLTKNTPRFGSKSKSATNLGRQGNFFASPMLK

[16] = microbe, parasite or virus in culture; format: functional; settings: Mycobacterium tuberculosis
[17] = biological target: Cytochrome P450 3A4 (Homo sapiens, UniProt P08684);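 further: CYP3A4 tested as one member of a cytochrome P450 panel screen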
[18] = biological target: Cytochrome P450 2C19 (Homo sapiens, UniProt P33261); assay: Cytochrome panel assay with activity outcomes. Panel member name: p450-cyp2c19 Compounds with AC50 equal or less than 10 uM are considered active; format: functional; settings: read-out: AC50
[19] = biological target: T4, Cytochrome P450 1A2 (Homo sapiens, UniProt P05177);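 further: PubChem cytochrome P450 panel assay, CYP1A2 panel member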
T4 sequence (P05177 whole entry): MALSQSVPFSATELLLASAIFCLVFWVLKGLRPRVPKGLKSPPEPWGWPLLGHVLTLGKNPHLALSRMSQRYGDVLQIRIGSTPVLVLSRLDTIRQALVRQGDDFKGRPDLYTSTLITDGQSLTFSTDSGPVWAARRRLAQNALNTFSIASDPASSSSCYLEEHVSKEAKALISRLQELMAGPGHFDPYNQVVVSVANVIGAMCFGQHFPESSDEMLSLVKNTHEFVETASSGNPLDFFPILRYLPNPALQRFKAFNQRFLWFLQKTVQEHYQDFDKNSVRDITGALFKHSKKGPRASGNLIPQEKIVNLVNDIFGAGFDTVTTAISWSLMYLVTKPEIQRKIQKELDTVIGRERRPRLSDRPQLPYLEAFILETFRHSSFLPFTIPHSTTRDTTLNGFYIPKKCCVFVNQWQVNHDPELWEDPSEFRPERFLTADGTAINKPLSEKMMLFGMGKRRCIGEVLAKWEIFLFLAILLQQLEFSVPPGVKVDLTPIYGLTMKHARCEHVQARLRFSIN

SMILES: COC(=O)c1ccc(CSc2nc(-c3ccccc3)cs2)o1
- IC50 [1]: 3.49 µM (not active)

SMILES: CC(C)NC(=O)CN(C)S(=O)(=O)c1ccc(F)cc1
- IC50 [2]: > 100 µM (inactive)

SMILES: COc1ccc(-c2ccc(Nc3ccc(S(=O)(=O)N4CCCC4)cc3)nn2)cc1OC
- AC50 [3]: 27.6 µM (active)
- IC50 [4]: > 79 µM (inactive)
- AC50 [5]: 20.1 µM (active)

SMILES: Cc1cccc(S(=O)(=O)N2C[C@@H]3N[C@H](C2)[C@@H]3c2ccc(-c3cccnc3)cc2)c1
- AC50 [6]: 6 µM (active)

SMILES: C=CCn1c(CC(=O)Nc2cccc(OC)c2)nnc1SCC(=O)NC1CCCCC1
- IC50 [2]: > 100 µM (inactive)

SMILES: O=C(Nc1ccc(F)cc1)Nc1ccc2c(c1)[C@@H]1C[C@H](CC(=O)N3CCCCC3)O[C@H](CO)[C@@H]1O2
- AC50 [7]: 62.5 µM (active)

SMILES: CN1CCN(S(=O)(=O)c2ccc(N(C)Cc3ccc(C(F)(F)F)cc3)c([N+](=O)[O-])c2)CC1
- AC50 [3]: 17.6 µM (active)
- AC50 [5]: 6.3 µM (active)
- AC50 [8]: 45.9 µM (active)

SMILES: CN(C)c1ccc(NC(=O)CN2CCC(N3CCCCC3)CC2)cc1
- IC50 [9]: 22.9 µM (active)

SMILES: CCC(=O)Nc1nc(CC(=O)Nc2ccccc2OC)cs1
- IC50 [2]: > 100 µM (inactive)

SMILES: CCOC(=O)C1=C(COC(=O)c2ccc(Cl)cc2[N+](=O)[O-])NC(=O)NC1C (stereo not given)
- IC50 [2]: > 100 µM (inactive)

SMILES: COc1ccc(NS(=O)(=O)c2ccc3c(c2)n(C)c(=O)n3C)cc1
- IC50 [2]: > 100 µM (inactive)

SMILES: COc1ccc(C(c2c(O)cc(C)oc2=O)c2c(O)cc(C)oc2=O)cc1
- IC50 [1]: 1.45 µM (not active)

SMILES: COc1ccc(C(=O)Cn2c(C(=O)/C=C/c3ccccc3)nc3ccccc32)cc1
- EC50 [10]: 4.59 µM (active)
- AC50 [5]: 4.47 µM (active)
- AC50 [8]: 59.1 µM (active)

SMILES: Cc1ccc(-c2ccc([C@H]3[C@@H](CO)N4C(=O)CN(C(=O)Nc5cccc(F)c5)C[C@H]34)cc2)cc1
- AC50 [6]: 6.09 µM (active)

SMILES: O=C(NN=Cc1c(O)ccc2ccccc12)c1ccc[n+](CCO)c1
- IC50 [11]: 3.07 µM (active)

SMILES: CCOC(=O)C(C)(C)N(Cc1ccc(Cl)cc1)S(=O)(=O)c1ccc(Cl)c([N+](=O)[O-])c1
- EC50 [12]: 14.7 µM (active)
- EC50 [13]: 8.15 µM (active)
- AC50 [14]: 2.07 µM (active)

SMILES: O=[N+]([O-])c1cccc(S(=O)(=O)N/N=C/c2ccc(O)cc2)c1
- IC50 [9]: 10.6 µM (active)
- IC50 [15]: 49.5 µM (active)

SMILES: Cc1sc2nc(CN(C(=O)NC3CCCCC3)C3CCCC3)nc(O)c2c1C
- CC50 [16]: > 40 µM (active)

SMILES: C[C@@H]1CN([C@H](C)CO)C(=O)c2c(c3ccccc3n2C)-c2ccccc2CO[C@@H]1CN(C)C(=O)c1cc(Cl)cc(Cl)c1
- AC50 [6]: 3.06 µM (active)

SMILES: CCS(=O)(=O)N1CCC2(CC1)CN(Cc1ccc3c(c1)OCO3)[C@H](CO)c1[nH]c3cc(OC)ccc3c12
- AC50 [6]: 5.03 µM (active)

SMILES: CCCCCCn1c(COc2ccccc2F)nnc1SCC(=O)N1c2ccccc2NC(=O)C1(C)C
- EC50 [12]: 23.5 µM (active)
- EC50 [13]: 26.5 µM (active)

SMILES: N#CC(C#N)=C(N)/C(C#N)=C/c1cc(O)c(O)c(O)c1 [TYRPHOSTIN 51]
- IC50 [9]: 19.8 µM (active)

SMILES: CCc1ccc2nc(O)c(CN(CCCN3CCOCC3)C(=O)Nc3cccc(Cl)c3)cc2c1
- CC50 [16]: 15 µM (active)

SMILES: Cc1cc(-c2nnc(S)n2/N=C/C=C/c2ccco2)[nH]n1
- IC50 [9]: 32.1 µM (active)

SMILES: CCc1[nH]nc2c1/C(=N\O)CC(c1ccccc1)C2 (stereo not given)
- EC50 [12]: 61.3 µM (active)
- EC50 [13]: 91.4 µM (active)

SMILES: CCCCCCCCNC(=O)C(CCC(=O)OCc1ccccc1)NC(C)=O (stereo not given)
- IC50 [2]: > 100 µM (inactive)

SMILES: CCC(/C=C(\O)c1cccnc1)=N\c1ccc(C)c(C)c1
- CC50 [16]: > 40 µM (active)

SMILES: O=C(COC(=O)Cn1cnc2ccccc21)Nc1ccc2c(c1)C(=O)c1ccccc1C2=O
- IC50 [1]: 6.69 µM (active)

SMILES: Cn1cc(C(=O)c2ccc(Cl)cc2)cc1-c1nc2ccccc2n1C
- CC50 [16]: > 40 µM (active)

SMILES: Cc1ccccc1-c1nnc(S)n1/N=C/C=C/c1ccco1
- IC50 [9]: 53 µM (active)

SMILES: CCCN(C)C[C@H]1Oc2cc(C#Cc3cccnc3)ccc2S(=O)(=O)N([C@H](C)CO)C[C@H]1C
- AC50 [6]: 3.19 µM (active)

SMILES: O=C(Nc1ccc2c(c1)OCO2)c1cccc(F)c1
- IC50 [2]: > 100 µM (inactive)

SMILES: Cc1ccc(OCCCC(=O)Nc2ccccc2C(F)(F)F)cc1
- AC50 [17]: 15.8 µM (inconclusive)
- IC50 [1]: > 54 µM (not active)

SMILES: O=[N+]([O-])c1cccc(/C=N/Nc2nc(C(Cl)(Cl)Cl)nc3ccccc23)c1
- EC50 [12]: 24.4 µM (active)
- EC50 [13]: 25.2 µM (active)

SMILES: CC(C)(C)CC(=O)NC(=S)N1CCCCCC1
- AC50 [18]: 39.8 µM (inconclusive)
- IC50 [2]: > 100 µM (inactive)
- AC50 [17]: 12.6 µM (inconclusive)
- AC50 [19]: 15.8 µM (inconclusive)

SMILES: O=C(c1cc(COc2ccc(F)cc2F)on1)N1CCCC(c2ccccc2)C1 (stereo not given)
- CC50 [16]: > 40 µM (active)

SMILES: CCOC(=O)C1(CCOc2ccccc2)CCN(Cc2ccc(OC)c(COC)c2)CC1
- AC50 [3]: 20.5 µM (active)
- AC50 [5]: 3.87 µM (active)
- AC50 [8]: 32.5 µM (active)
